biological target: catE / beta-secretase (BACE); assay: CatE/BACE selectivity (ratio of IC50 values); assay type: biochemical; settings: each value is an average of four experimental runs; multiple values = more than one experiment
Description: Selectivity was calculated as a ratio of inhibition (IC50) values in which the inhibition of beta-secretase was compared to the inhibition of other aspartyl proteases.
Selectivity is reported as the ratio of IC50(catE):IC50(BACE).
In the following examples, each value is an average of four experimental runs and multiple values for one compound indicate that more than one experiment was conducted.

Row | SMILES | IC50 catE/IC50 BACE
1 | CC(=O)NC(Cc1cc(F)cc(F)c1)C(O)CNC1(c2cccc(C(C)(C)C)c2)CCC([S+](C)[O-])CC1 (single isomer, unassigned) [196B-24 Diastereomer B, N-(4-(1-(3-tert-butylphenyl)-4-(methylsulfinyl)cyclohexylamino)-1-(3,5-difluorophenyl)-3-hydroxybutan-2yl)acetamide] | 3.0
2 | CC(=O)NC(Cc1cc(F)cc(F)c1)C(O)CNC1(c2cccc(C(C)(C)C)c2)CCC([S+](C)[O-])CC1 (single isomer, unassigned) [196B-25 Diastereomer A, N-(4-(1-(3-tert-butylphenyl)-4-(methylsulfinyl)cyclohexylamino)-1-(3,5-difluorophenyl)-3-hydroxybutan-2yl)acetamide] | 1.1
3 | CC(=O)NC(Cc1cc(F)cc(F)c1)C(O)CNC1(c2cccc(C(C)(C)C)c2)CCC(O)(CO)CC1 (single isomer, unassigned) [196B-27 Diastereomer B, N-[3-[1-(3-tert-Butyl-phenyl)-4-hydroxy-4-hydroxymethyl-cyclohexylamino]-1-(3,5-difluoro-benzyl)-2-hydroxy-propyl]-acetamide] | >5.3
4 | CC(=O)NC(Cc1cc(F)cc(F)c1)C(O)CNC1(c2cccc(C(C)(C)C)c2)CCC(O)(CO)CC1 (single isomer, unassigned) [196B-28 Diastereomer A, N-[3-[1-(3-tert-Butyl-phenyl)-4-hydroxy-4-hydroxymethyl-cyclohexylamino]-1-(3,5-difluoro-benzyl)-2-hydroxy-propyl]-acetamide] | >7.4
5 | COC(=O)NC1CCC(NCC(O)C(Cc2cc(F)cc(F)c2)NC(C)=O)(c2cccc(C(C)(C)C)c2)CC1 (single isomer, unassigned) [196B-29 Diastereomer A, methyl 4-(3-acetamido-4-(3,5-difluorophenyl)-2-hydroxybutylamino)-4-(3-tert-butylphenyl)cyclohexylcarbamate] | 13.1
6 | CC(=O)NC(Cc1cc(F)cc(F)c1)C(O)CNC1(c2cccc(C(C)(C)C)c2)CCC(N(O)C(C)=O)CC1 (single isomer, unassigned) [196B-31 Diastereomer A, N-(4-(3-acetamido-4-(3,5-difluorophenyl)-2-hydroxybutylamino)-4-(3-tert-butylphenyl)cyclohexyl)-N-hydroxyacetamide] | 13.0
7 | CC(=O)NC(Cc1cc(F)cc(F)c1)C(O)CNC1(c2cccc(C(C)(C)C)c2)CCC(NS(C)(=O)=O)CC1 (single isomer, unassigned) [196B-35 Diastereomer B, N-(4-(1-(3-tert-butylphenyl)-4-(methylsulfonamido)cyclohexylamino)-1-(3,5-difluorophenyl)-3-hydroxybutan-2-yl)acetamide] | >3.0
8 | CC(=O)NC(Cc1cc(F)cc(F)c1)C(O)CNC1(c2cccc(C(C)(C)C)c2)CCC(NC=O)CC1 (single isomer, unassigned) [196B-36 Diastereomer A, N-(4-(1-(3-tert-butylphenyl)-4-formamidocyclohexylamino)-1-(3,5-difluorophenyl)-3-hydroxybutan-2-yl)acetamide] | 26.5
9 | CNC(=O)NC1CCC(NCC(O)C(Cc2cc(F)cc(F)c2)NC(C)=O)(c2cccc(C(C)(C)C)c2)CC1 (single isomer, unassigned) [196B-38 Diastereomer B, 1-(4-(3-acetamido-4-(3,5-difluorophenyl)-2-hydroxybutylamino)-4-(3-tert-butylphenyl)cyclohexyl)-3-methylurea] | >3.5
10 | CNC(=O)NC1CCC(NCC(O)C(Cc2cc(F)cc(F)c2)NC(C)=O)(c2cccc(C(C)(C)C)c2)CC1 (single isomer, unassigned) [196B-39 Diastereomer A, 1-(4-(3-acetamido-4-(3,5-difluorophenyl)-2-hydroxybutylamino)-4-(3-tert-butylphenyl)cyclohexyl)-3-methylurea] | >1.3
11 | CC(=O)NC(Cc1ccc(O)c(F)c1)C(O)CNC1(c2cccc(C(C)C)c2)CCCCC1 (stereo not shown) [Example 196B-1, N-{1-(3-Fluoro-4-hydroxy-benzyl)-2-hydroxy-3[1-(3-isopropyl-phenyl)-cyclohexylamino]-propyl}-acetamide] | 3.2
12 | CC(=O)NC(Cc1cc(F)cc(F)c1)C(O)CNC1(c2cccc(C(C)C)c2)CCC(=O)CC1 (stereo not shown) [Example 196B-2, N-{1-(3,5-Difluoro-benzyl)-2-hydroxy-3-[1-(3-isopropyl-phenyl)-4-oxo-cyclohexylamino]-propyl}-acetamide] | 3.7
13 | CC(=O)NC(Cc1cc(F)cc(F)c1)C(O)CNC1(c2cccc(C(C)(C)C)c2)CCC(C)CC1 (stereo not shown) [Example 196B-5, N-[3-[1-(3-tert-Butyl-phenyl)-4-methyl-cyclohexylamino]-1-(3,5-difluoro-benzyl)-2-hydroxy-propyl]-acetamide] | 3.1
14 | CC(=O)NC(Cc1cc(F)cc(F)c1)C(O)CNC1(c2cccc(-c3ccsc3)c2)CCC(=O)CC1 (stereo not shown) [Example 196B-10, N-(1-(3,5-difluorophenyl)-3-hydroxy-4-(4-oxo-1-(3-(thiophen-3-yl)phenyl)cyclohexylamino)butan-2-yl)acetamide] | 5.6
15 | CC(=O)NC(Cc1cc(F)cc(F)c1)C(O)CNC1(c2cccc(-n3cccn3)c2)CCC2(CC1)OCCO2 (stereo not shown) [Example 196B-13, N-{1-(3,5-Difluoro-benzyl)-2-hydroxy-3-[8-(3-pyrazol-1-yl-phenyl)-1,4-dioxa-spiro[4.5]dec-8-ylamino]-propyl}-acetamide] | 2.5
16 | CC(=O)NC(Cc1cc(F)cc(F)c1)C(O)CNC1(c2cccc(C(C)(C)C)c2)CCN(CCC#N)CC1 (stereo not shown) [Example 196B-26, N-[3-[4-(3-tert-Butyl-phenyl)-1-(2-cyano-ethyl)-piperidin-4-ylamino]-1-(3,5-difluoro-benzyl)-2-hydroxy-propyl]-acetamide] | 1.8
17 | CC(=O)NC(Cc1cc(F)cc(F)c1)C(O)CNC1(c2cccc(C(C)(C)C)c2)CCCN(C)C1 (stereo not shown) [Example 196B-32, N-(4-(3-(3-tert-butylphenyl)-1-methylpiperidin-3-ylamino)-1-(3,5-difluorophenyl)-3-hydroxybutan-2-yl)acetamide] | >2,0
18 | CC(=O)NC(Cc1cc(F)cc(F)c1)C(O)CNC1(c2cccc(Br)c2)CCC2(CC1)OCCO2 (stereo not shown) [Example 196B-40, N-[3-[8-(3-Bromo-phenyl)-1,4-dioxa-spiro[4.5]dec-8-ylamino]-1-(3,5-difluoro-benzyl)-2-hydroxy-propyl]-acetamide] | 2.8
19 | CC(=O)NC(Cc1cc(F)cc(F)c1)C(O)CNC1(c2cccc(C(C)(C)C)c2)CCC(C#N)CC1 (stereo not shown) [Example 196B-41, N-[3-[1-(3-tert-Butyl-phenyl)-4-cyano-cyclohexylamino]-1-(3,5-difluoro-benzyl)-2-hydroxy-propyl]-acetamide] | 2.5
